US11911393B2, “Non-catalytic substrate-selective p38alpha-specific MAPK inhibitors with endothelial-stabilizing and anti-inflammatory activity, and methods of use thereof” (University of Maryland, Baltimore, priority 2016, dated 2024)
Entries after “also recorded” stand apart in the source; their conditions may differ. Like-named read-outs stand apart in the source and are kept apart here. Each block holds one molecule with its values, some of them ahead of it.

Assays:
[1] = target: T1, unphosphorylated recombinant human p38α (Homo sapiens, UniProt Q16539); test: Differential scanning fluorimetry (DSF), binding to p38α; conditions: for stabilization of p38α in DSF (binding), in words: DSF melting temperature, concentration series
T1 construct: made in house; host or cells: E. coli BL21
T1 sequence (Q16539 whole entry): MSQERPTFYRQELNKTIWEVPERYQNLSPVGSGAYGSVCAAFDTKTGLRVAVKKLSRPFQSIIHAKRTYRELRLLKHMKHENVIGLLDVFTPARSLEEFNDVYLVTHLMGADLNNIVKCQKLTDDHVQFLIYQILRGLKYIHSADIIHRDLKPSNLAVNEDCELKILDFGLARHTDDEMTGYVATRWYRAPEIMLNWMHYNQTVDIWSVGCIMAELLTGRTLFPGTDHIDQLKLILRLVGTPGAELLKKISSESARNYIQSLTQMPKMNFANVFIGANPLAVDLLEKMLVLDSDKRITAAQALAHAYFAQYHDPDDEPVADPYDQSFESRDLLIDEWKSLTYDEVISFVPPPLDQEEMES

ERK2 = ERK2 (Homo sapiens, UniProt P28482); test: DSF, binding to ERK2; conditions: for ERK2 ΔTm (° C.) @100 μM / ΔTm at 100 µM: change in melting temperature relative to DMSO control in DSF assay; for stabilization of ERK2 in DSF (binding), in words: test compounds at 10-100 μM
Chain of ERK2 (P28482 whole entry, species assumed): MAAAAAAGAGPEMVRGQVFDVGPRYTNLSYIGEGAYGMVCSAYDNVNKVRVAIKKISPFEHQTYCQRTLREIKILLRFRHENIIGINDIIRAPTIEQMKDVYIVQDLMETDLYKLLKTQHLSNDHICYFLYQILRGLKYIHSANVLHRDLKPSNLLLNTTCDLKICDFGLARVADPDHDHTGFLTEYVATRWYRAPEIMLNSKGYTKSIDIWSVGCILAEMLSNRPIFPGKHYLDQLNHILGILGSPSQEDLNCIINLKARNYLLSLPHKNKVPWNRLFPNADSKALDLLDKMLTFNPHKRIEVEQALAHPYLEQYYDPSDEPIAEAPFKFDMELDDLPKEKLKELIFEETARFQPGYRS

[2] = test system: patients with hypercholesterolemia; conditions: cited from earlier work
[3] = test system: LPS/hyperthermia-induced ALI in CD1 mice; test: Mouse i.t. LPS/FRH-induced acute lung injury model; conditions: for reduction of lavage neutrophil content vs. DMSO-treated controls: mouse LPS/hyperthermia ALI, 24 h; for mice that died within 24 h: single i.p. injection of 100-1000 μg UM101, 1000 μg UM60 or 1000 μg SB203580, 30 min before i.t. 50 μg LPS and hyperthermia
[4] = test system: p38-dependent phosphorylation of MK2 and Stat-1 in HeLa cells; test: Inhibition of substrate phosphorylation (immunoblot); assay type: cell-based, human; conditions: 10 μM SB203580 or 50 μM UM101 for 30 min
Description: Cell extracts prepared in RIPA buffer containing protease and phosphatase inhibitors were resolved by SDS-PAGE, transferred to PVDF membrane, blocked with 5% nonfat dry milk, probed with primary antibodies against phosphorylated MK2 and Stat-1, and total p38α as a loading control. Bands were detected using secondary antibodies conjugated to infrared fluorophores and infrared fluorescence imaging (Odyssey; LICOR).

[5] = test system: IL-8-directed neutrophil TEM through HMVECLs; test: Neutrophil transendothelial migration (TEM) assay; assay type: cell-based, human; conditions: HMVECLs preincubated at 39.5° C. for 6 h
p38β [6] = target: T2, p38β (Homo sapiens, UniProt Q15759); test: STD-NMR, binding to p38β; conditions: 200 μM UM101, 5 μM p38 protein
T2 construct: HA (N); made in house; host or cells: E. coli BL21
T2 sequence (Q15759 whole entry): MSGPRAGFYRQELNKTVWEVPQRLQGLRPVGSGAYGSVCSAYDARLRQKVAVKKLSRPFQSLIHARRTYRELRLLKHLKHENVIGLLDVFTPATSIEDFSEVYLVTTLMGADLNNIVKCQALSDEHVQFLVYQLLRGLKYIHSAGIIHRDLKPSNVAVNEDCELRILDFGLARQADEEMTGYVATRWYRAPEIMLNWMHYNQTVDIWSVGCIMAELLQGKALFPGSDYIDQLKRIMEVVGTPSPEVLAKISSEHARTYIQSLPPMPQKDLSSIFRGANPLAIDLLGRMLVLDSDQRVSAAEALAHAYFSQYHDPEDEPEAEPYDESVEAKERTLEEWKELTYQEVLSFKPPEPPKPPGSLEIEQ
Description: (§1) Spectra were recorded on an Agilent DD2 500-MHz spectrometer equipped with a 5-mm inverse HFCN probe head at 300 K. During each transient, the protein was saturated with a series of 58 […]-shaped pulses (50 ms, 1 ms delay between pulses) using the vendor-supplied STD-ES pulse sequence, for a total saturation time of 3 seconds. The on-resonance irradiation of protein was done at 0.5 ppm and off-resonance irradiation at 30 ppm. The vendor-supplied WATERGATE pulse sequence was used to suppress the water signal in the STD spectrum. The on-resonance and off-resonance pulse sequences were subtracted internally. A total of 16,384 transients were collected for each STD experiment with a 1 second delay between acquisitions, 6000 Hz spectral width, and 1.3 second acquisition time.

HMVECL monolayers = test: Endothelial permeability assay (10 kDa dextran flux); assay type: cell-based, human; conditions: for reduction of TNFα/hyperthermia-induced permeability increase: HMVECL, 10 kDa dextran, TNFα and 39.5° C. for 6 h
Description: Endothelial permeability assay: Permeability of HMVECL monolayers was assessed by measuring transendothelial flux of 10 kDa dextran conjugated to Cascade blue fluorescent dye for 30 min at 37° C. in Matrigel-coated 3 μm pore size Transwell plates.

HMVECLs = test: Cytotoxicity assay (MTS, LDH release); assay type: cell-based, human; conditions: 100 μM for 48 h
Description: Cytotoxicity of HMVECL exposed to 10-100 μM of each compound is analyzed by MTS assay (Promega), LDH release (Promega), and immunoblotting for activated caspase-3 (Cell Signaling).
Cytotoxicity assay: Cytotoxicity was monitored in parallel HMVEC-L monolayers established in 96-well culture plates using a colorimetric assay that measured reduction of 3-(4,5-dimethylthiazol-2-yl)-5-(3-carboxymethoxyphenyl)-2-(4-sulfophenyl)-2H-tetrazolium (MTS) to a formazan dye (CellTiter 96™; Promega; Madison, WI) according to the manufacturer's protocol and quantifying product formation by measuring absorption at 490 nm.

[7] = test system: LPS-induced cytokine expression in PMA-differentiated THP1 cells; test: LPS-induced cytokine expression, PCR-based cytokine array; assay type: cell-based, human; conditions: 25 μM SB203580 or 10, 25, or 100 μM UM101
p38α = target: T3, p38α (Homo sapiens, UniProt Q16539); test: STD-NMR, binding to p38α; conditions: 200 μM UM101, 5 μM p38 protein
T3 construct: made in house; host or cells: E. coli BL21
T3 sequence (Q16539 whole entry): as the sequence (Q16539 whole entry) above
Description: as §1

[8] = target: T4, p38α mutant (R49K/HL107-8TF/K165R) (Homo sapiens, UniProt Q16539, H107T/K165R/L108F/R49K); test: DSF, binding to target-disrupted p38α mutant; conditions: compared with wild-type p38α
T4 construct: made in house; host or cells: E. coli BL21
T4 sequence (Q16539 whole entry R49K/H107T/L108F/K165R): as the sequence (Q16539 whole entry) above, with R49K, H107T, L108F, K165R counted along it

p38β [9] = target: T2, p38β; test: DSF, binding to p38β; conditions: DSF melting temperature, concentration series
mutated p38α = target: T5, mutated p38α (Homo sapiens, UniProt Q16539, H107T/K165R/L108F/R49K); test: STD-NMR, binding to mutated p38α; conditions: 200 μM UM101, 5 μM p38 protein
T5 construct: made in house; host or cells: E. coli BL21
T5 sequence (Q16539 whole entry R49K/H107T/L108F/K165R): as the sequence (Q16539 whole entry) above, with R49K, H107T, L108F, K165R counted along it
Description: as §1

[10] = test system: patients with Crohn's disease; conditions: cited from earlier work
rheumatoid arthritis = conditions: two trials in rheumatoid arthritis; cited from earlier work
[11] = test system: patients at-risk for ARDS; conditions: early phase IIa trial, cited from earlier work
[12] = 100 μM, change in melting temperature relative to DMSO control in DSF assay
[13] = 100 μM, change in melting temperature relative to DMSO control in DSF assay, read-out: p38α ΔTm (° C.) @100 μM
[14] = added at 100 μM, DSF, read-out: increase in melting temperature of p38α

p38α ΔTm (° C.) @100 μM [1, 12]: −0.07 °C
ERK2 ΔTm (° C.) @100 μM (ERK2): 0.531 °C
Compound: Cc1nc(-c2ccc(S(=O)(=O)NCCCN)s2)cs1 [compound 8]

p38α ΔTm (° C.) @100 μM [1, 12]: 0.282 °C
ERK2 ΔTm (° C.) @100 μM (ERK2): 0.337 °C
stabilization of ERK2 in DSF (binding), in words (ERK2): also stabilized ERK2
Compound: O=C1NCCN1CCNS(=O)(=O)c1ccc(S(=O)(=O)c2ccccc2)s1 [compound 3]
stabilization of p38α in DSF (binding), in words [1]: concentration-dependent stabilization of p38α

Compound: Cc1c(F)cc(C(=O)NC2CC2)cc1-c1ccc(C(=O)NCC(C)(C)C)cn1 [losmapimod]
serum CRP [2]: reduced
vascular relaxation [2]: improved

p38α ΔTm (° C.) @100 μM [1, 12]: 0.005 °C
ERK2 ΔTm (° C.) @100 μM (ERK2): 0.390 °C
Compound: CS(=O)(=O)N1CCN(c2ncccc2C(F)(F)F)CC1 [compound 13]

p38α ΔTm (° C.) @100 μM [1, 12]: 0.808 °C
ERK2 ΔTm (° C.) @100 μM (ERK2): 0.628 °C
stabilization of ERK2 in DSF (binding), in words (ERK2): also stabilized ERK2
Compound: CN1CCN(c2ccc(CNS(=O)(=O)c3ccc(-c4ccon4)s3)cc2)CC1 [compound 5]
stabilization of p38α in DSF (binding), in words [1]: concentration-dependent stabilization of p38α

Compound: O=C(Nc1ccc(CN2CCS(=O)(=O)CC2)cc1)c1ccc(Cl)cc1 [UM101, 4-chloro-N-{4-[(1,1-dioxo-1 lambda˜6˜,4-thiazinan-4-yl)methyl]phenyl}benzamide]
reduction of lavage neutrophil content vs. DMSO-treated controls ([3]; 100 μg i.p.): 44.4%
reduction of lavage neutrophil content vs. DMSO-treated controls ([3]; 300 μg i.p.): 49.5%
reduction of lavage neutrophil content vs. DMSO-treated controls ([3]; 500 μg i.p.): 55.3%
reduction of lavage neutrophil content vs. DMSO-treated controls ([3]; 1000 μg i.p.): 54%
tolerability and potency compared with SB203580 in experimental ALI, in words ([3]; mouse LPS/FRH-induced ALI): well tolerated and more potent than SB203580 in mitigating experimental ALI; also recorded: more potent than SB203580 in reducing neutrophil and protein accumulation in BAL
mice that died within 24 h [3]: All sixteen UM101-pretreated mice survived
anisomycin-stimulated phosphorylation of MK2, in words [4]: partial inhibition of MK2 phosphorylation
anisomycin-stimulated phosphorylation of Stat-1, in words [4]: reduced
anisomycin-stimulated phosphorylation of MK2, in words ([4]; listed as UM1010): reduced
reduction of hyperthermia-augmented neutrophil TEM ([5]; 10 μM): 95%
reduction of hyperthermia-augmented neutrophil TEM ([5]; 25 μM): less than baseline levels
reduction of hyperthermia-augmented neutrophil TEM ([5]; 50 μM): less than baseline levels
ΔTm at 100 µM [1, 13]: 0.667 °C
stabilization of p38α in DSF (binding), in words [1]: concentration-dependent increase in melting temperature of p38α; also recorded: only stabilized p38α
ΔTm at 100 µM [1, 14]: ~0.7 °C
ΔTm at 100 µM (ERK2): 0.0175 °C
stabilization of ERK2 in DSF (binding), in words (ERK2): not ERK2
interaction with p38β in STD-NMR, in words (p38β [6]): much weaker
reduction of TNFα/hyperthermia-induced permeability increase (HMVECL monolayers; 10 μM): 74%
reduction of TNFα/hyperthermia-induced permeability increase (HMVECL monolayers; 25 μM): 89%
reduction of TNFα/hyperthermia-induced permeability increase (HMVECL monolayers; 100 μM): > 100%
endothelial barrier stabilization compared with SB203580, in words (HMVECL monolayers; HMVECL barrier assays (FIG. 2a, 2b)): more effectively stabilized endothelial barriers than SB203580
toxicity in LDH release and MTS assays (HMVECLs): Neither compound was toxic
LPS-stimulated genes of the array (16) whose expression was inhibited, in words [7]: inhibited expression of all SB203580-inhibited genes except TNFSF9
interaction with p38α in STD-NMR, in words (p38α): confirmed specific UM101 binding to p38α; also recorded: protons in both aromatic rings of UM101 interact with p38α
binding to p38α mutant with four of ten target pocket amino acids substituted, in words [8]: abrogated UM101 binding; also recorded: no UM101-binding
stabilization of p38β in DSF (binding), in words (p38β [9]): not p38β; also recorded: only stabilized p38α
interaction with mutated p38α in STD-NMR, in words (mutated p38α): much weaker

Compound: Cc1ccc(-n2nc(C(C)(C)C)cc2NC(=O)Nc2ccc(OCCN3CCOCC3)c3ccccc23)cc1 [BIRB 796]
clinical effect in Crohn's disease [10]: no clinical effect
serum CRP levels [10]: transiently reduced

Compound: NC(=O)c1ccc(N(C(N)=O)c2c(F)cccc2F)nc1-c1ccc(F)cc1F [VX-702]
proportion of treated subjects with ACR20 symptom score vs. placebo (rheumatoid arthritis): small increases

p38α ΔTm (° C.) @100 μM [1, 12]: 0.065 °C
ERK2 ΔTm (° C.) @100 μM (ERK2): 0.452 °C
Compound: CN1CCN(CC(=O)Nc2ccc(S(N)(=O)=O)cc2)CC1 [compound 4]

p38α ΔTm (° C.) @100 μM [1, 12]: −0.488 °C
ERK2 ΔTm (° C.) @100 μM (ERK2): −0.598 °C
Compound: O=S(=O)(NCc1csc(-c2cccs2)n1)c1ccc2c(c1)CCO2 [compound 23]

p38α ΔTm (° C.) @100 μM [1, 12]: −0.233 °C
ERK2 ΔTm (° C.) @100 μM (ERK2): 0.361 °C
Compound: O=S(=O)(CCS(=O)(=O)c1ccccn1)c1ccc(Cl)cc1 [compound 69]

p38α ΔTm (° C.) @100 μM [1, 12]: −0.052 °C
ERK2 ΔTm (° C.) @100 μM (ERK2): 0.444 °C
Compound: O=S(=O)(c1ccccc1)N(Cc1ccccn1)Cc1ccccn1 [compound 16]

Compound: Cc1cc(F)ccc1-c1nc(NC(CO)CO)nc2c1ccc(=O)n2-c1c(F)cccc1F [dilmapimod]
serum C-reactive protein (CRP) levels ([11]; patients at-risk for ARDS): modestly reduced
safety in patients at-risk for ARDS [11]: safe at the doses administered

p38α ΔTm (° C.) @100 μM [1, 12]: −1.084 °C
ERK2 ΔTm (° C.) @100 μM (ERK2): −1.632 °C
Compound: O=C(CSc1cccs1)NCCSCc1ccco1 [compound 146]

p38α ΔTm (° C.) @100 μM [1, 12]: −0.05 °C
ERK2 ΔTm (° C.) @100 μM (ERK2): 0.412 °C
Compound: COc1ccccc1N1CCN(CCCCNS(=O)(=O)c2ccc(C)cc2)CC1 [compound 2]

p38α ΔTm (° C.) @100 μM [1, 12]: −0.171 °C
ERK2 ΔTm (° C.) @100 μM (ERK2): 0.133 °C
Compound: Cc1nc(S(=O)(=O)NCc2cc(F)cc3c2OCOC3)cn1C [compound 150]

Compound: O=C1c2cc(S(=O)(=O)NCCO)ccc2-c2ccc(S(=O)(=O)NCCO)cc21 [UM60, N2,N7-di(2-hydroxyethyl)-9-oxo-9H-2,7-fluorenedisulfonamide]
mice that died within 24 h [3]: Four of six
reduction of hyperthermia-augmented neutrophil TEM ([5]; 10 μM): 18%
reduction of hyperthermia-augmented neutrophil TEM ([5]; 25 μM): 89%
reduction of hyperthermia-augmented neutrophil TEM ([5]; 50 μM): less than baseline levels
ΔTm at 100 µM [1, 13]: 0.735 °C
stabilization of p38α in DSF (binding), in words [1]: stabilized p38α
ΔTm at 100 µM [1, 14]: ~0.7 °C
ΔTm at 100 µM (ERK2): 0.195 °C
stabilization of ERK2 in DSF (binding), in words (ERK2): not ERK2
reduction of TNFα/hyperthermia-induced permeability increase (HMVECL monolayers; 10 μM): no effect
reduction of TNFα/hyperthermia-induced permeability increase (HMVECL monolayers; 25 μM): no effect
reduction of TNFα/hyperthermia-induced permeability increase (HMVECL monolayers; 100 μM): 71%
toxicity in LDH release and MTS assays (HMVECLs): Neither compound was toxic
